Data on 19 compounds can be found in PMC7503712, “Enterovirus Inhibition by Hinged Aromatic Compounds with Polynuclei” (Molecules, 2020).

Data set [1] can be described thus: Lipophilicity by shake-flask method with UV spectrometry. The format is physicochemical. The conditions noted are these: n-octane and water, 25 ± 1 °C, average of three independent experiments. The procedure: The log P values associated with the molecular lipophilicity of all hinged aromatic compounds with polynuclei were obtained by use of the ''shake-flask method'' [46]. The partition coefficient was measured as the ratio of the equilibrium concentrations of a dissolved hinged compound in a two-phase system consisting of n-octane and water, which are immiscible solvents. The temperature was kept constant at 25 ± 1 °C. The analytical method employed was UV spectrometry.

A short description of data set [2]: Adverse effect on host cell metabolism (MTS method) in RD cells. The conditions noted are these: human, RD (rhabdomyosarcoma) cells, RD host cell metabolism reduced by 50%. In kind it is cell-based. The protocol:
(§1) The selectivity index (SI = CC50/EC50), a measure for the therapeutic window of the compound in the assay system, was then calculated. The antiviral effect of hinged aromatic compounds that adversely affected the host cell metabolism was likely as a result of a pleiotropic or non-specific effect on the host cell. […].
(§2) The biological activity of the 18 hinged aromatic compounds against EV71 was evaluated in a cell-based assay with live enteroviruses. The EV71 strains were originated from Chang Gung University of Taiwan. The rhabdomyosarcoma (RD) cells, grown for 3–4 days in tissue culture flasks, were harvested and seeded in MEM Rega 3 medium (Gibco, Merelbeke, Belgium) supplemented with fetal bovine serum (FBS, 2.0%, Integro, Merelbeke, Belgium), 200 mM L-glutamine (Gibco, Merelbeke, Belgium), and aqueous 7.5% NaHCO3 (Gibco, Merelbeke, Belgium). The microtitre plates were incubated overnight to produce a non-confluent cell monolayer. Then assay plates were transferred to a liquid handling platform, on which a sample dilution series was prepared at a sample concentration of 0.100 mg/mL or lower in DMSO. After preparation of the hinged compound dilution series, virus was added to the wells with a dilution optimized for each EV71 strain. The final, maximal DMSO concentration that reached in the assay wells with the highest sample input (1.0%) was tolerated well by the cells. The assay plates were returned to the incubator at 37 °C (5.0% CO2) for four days. According to the manufacturers’ instructions (Promega, Leiden, The Netherlands), residual cell viability was then quantified by use of an MTS readout method.
On the technique in general: Tetrazolium assays rely on reduction of a dye to a coloured formazan, in cell work by metabolically active cells.

A further data set deals with EV71 strain BrCr. The data set is described as follows: Antiviral activity on the replication of EV71 strain BrCr in RD cells. The format is cell-based, Enterovirus 71. Conditions: for EC50: Enterovirus A, virus replication inhibited by 50%. The protocol: as §1, §2

The structures appear in SMILES notation.

A word on the CC50: it is the concentration that lowers cell viability or growth by half. Higher therefore signals better tolerance by the cells. For orientation: EC50 means the concentration needed to bring the measured effect to its halfway point. In the case of `O=C(c1ccc(-c2cccc(-c3cc[nH]n3)c2)o1)N1CCCC1` [10a, (5-[3-(1H-Pyrazol-3-yl)phenyl]furan-2-yl)(pyrrolidin-1-yl)methanone], the logD hydrocarbon water in data set [1] amounted to 3.42. The same compound showed a CC50 at 4 days in data set [2] of 119 ± 2 µM. In the data set with EV71 strain BrCr, the “SI (selectivity index = CC50/EC50)” value came to 7.30 and it took 16.2 ± 1 µM to reach a half-maximal effect (EC50).
For the compound `O=C(c1ccc(-c2cccc(-c3cc[nH]n3)c2)o1)N1CCCCC1` [10b, Piperidin-1-yl(5-[3-(1H-pyrazol-3-yl)phenyl]furan-2-yl)methanone], in data set [1], the logD hydrocarbon water turned out to be 3.87. The CC50 at 4 days in data set [2] is 14.3 ± 1 µM. In the data set with EV71 strain BrCr, the “SI (selectivity index = CC50/EC50)” value was determined as 6.70 and the half-maximal effective concentration (EC50) was 2.14 ± 0.12 µM.
On the same counts, the results for `O=C(c1ccc(-c2cccc(-c3cc[nH]n3)c2)o1)N1CCCCCC1` [10c, Azepan-1-yl(5-[3-(1H-pyrazol-3-yl)phenyl]furan-2-yl)methanone] are 4.22, 81.1 ± 3 µM, 13.1 and 6.16 ± 0.15 µM.
`O=C(Nc1ccc(F)cc1)c1ccc(-c2cccc(-c3cc[nH]n3)c2)o1` [12a, N-(4-Fluorophenyl)-5-[3-(1H-pyrazol-3-yl)phenyl]furan-2-carboxamide] displayed a logD hydrocarbon water in data set [1] of 4.18. Also, the CC50 at 4 days in data set [2] was determined as 4.53 ± 0.1 µM. The same compound yielded an EC50 in the data set with EV71 strain BrCr of less than 1.73 µM.
Take `COc1ccc(NC(=O)c2ccc(-c3cccc(-c4cc[nH]n4)c3)o2)cc1` [12b, N-(4-Methoxyphenyl)-5-[3-(1H-pyrazol-3-yl)phenyl]-furan-2-carboxamide]: in data set [1], the logD hydrocarbon water came out at 4.15. Besides, the midpoint of cytotoxicity in data set [2], the CC50 at 4 days, lay at 21 ± 1.5 µM. Further, in the data set on EV71 strain BrCr, the “SI (selectivity index = CC50/EC50)” value was 8.70 and the EC50 was 2.41 ± 0.3 µM.
`O=C(c1ccc(-c2cccc(-c3cc[nH]n3)c2)o1)N1CCOCC1` [21a] came in with a logD hydrocarbon water in data set [1] of 2.6. For the same compound, in the data set with EV71 strain BrCr, the EC50 came out at 11.6 ± 0.3 µM.
On the same counts, the results for `Cc1cc(-c2cccc(-c3ccc(C(=O)N4CCOCC4)o3)c2)n[nH]1` [21b, Morpholino-(5-[3-(5-methyl-1H-pyrazol-3-yl)phenyl]furan-2-yl)methanone] are 2.87 and 13 ± 2.5 µM.
Turning to `O=C(c1ccc(-c2cccc(-c3cc(-c4ccccc4)[nH]n3)c2)o1)N1CCOCC1` [21c, Morpholino-(5-[3-(5-phenyl-1H-pyrazol-3-yl)phenyl]furan-2-yl)methanone], the logD hydrocarbon water in data set [1] was determined as 3.92. Also, it took 4.13 ± 0.12 µM to reach half-maximal cytotoxicity in data set [2] (CC50 at 4 days).
In the same order, the values of `Cc1ccc(-c2cc(-c3cccc(-c4ccc(C(=O)N5CCOCC5)o4)c3)n[nH]2)cc1` [21d, Morpholino[5-(3-[5-(p-tolyl)-1H-pyrazol-3-yl]phenyl)furan-2-yl]methanone] are 4.3 and 3.25 ± 0.3 µM.
The compound `COc1ccc(-c2cc(-c3cccc(-c4ccc(C(=O)N5CCOCC5)o4)c3)n[nH]2)cc1` [21e, Morpholino[5-(3-[5-(4-methoxyphenyl)-1H-pyrazol-3-yl]phenyl)furan-2-yl]methanone] gave a logD hydrocarbon water in data set [1] of 3.96. In addition, in data set [2], the CC50 at 4 days came to 2.09 ± 0.1 µM. This compound also had an EC50 with EV71 strain BrCr of less than 1.4 µM.
In turn, `O=C(c1ccc(-c2cccc(-c3cc(-c4ccc(C(F)(F)F)cc4)[nH]n3)c2)o1)N1CCOCC1` [21f, Morpholino(5-[3-(5-[4-(trifluoromethyl)phenyl]-1H-pyrazol-3-yl)phenyl]furan-2-yl)-methanone] returned a logD hydrocarbon water in data set [1] of 4.33. In data set [2], this compound had a CC50 at 4 days of 3.28 ± 0.11 µM. In addition, the EC50 in the data set on EV71 strain BrCr was less than 1.28 µM.
A word on the melting point: it is the temperature, or range, at which the solid turns liquid. Compound `O=C(c1ccc(-c2cccc(-c3cc(-c4ccccc4)[nH]n3)c2)s1)N1CCOCC1` [21g, Morpholino(5-[3-(5-phenyl-1H-pyrazol-3-yl)phenyl]thiophen-2-yl)methanone] yielded a melting point of 239.6 to 241.8 °C. In data set [1], this compound showed a logD hydrocarbon water of 4.61. The compound also yielded an EC50 with EV71 strain BrCr of 241 ± 3 µM.
In turn, `COc1ccc(-c2cc(-c3cccc(-c4ccc(C(=O)N5CCOCC5)s4)c3)n[nH]2)cc1` [21h, [5-(3-[5-(4-Methoxyphenyl)-1H-pyrazol-3-yl]phenyl)thiophen-2-yl](morpholino)methanone] returned a logD hydrocarbon water in data set [1] of 4.64. In addition, the CC50 at 4 days in data set [2] was 41.9 ± 2.2 µM. For the same compound, in the data set on EV71 strain BrCr, the “SI (selectivity index = CC50/EC50)” value amounted to 10.2 and the EC50 is 4.1 ± 0.12 µM.
In the same order, the values of `O=C(c1ccc(-c2cccc(-c3cc(-c4ccc(C(F)(F)F)cc4)[nH]n3)c2)s1)N1CCOCC1` [21i, Morpholino(5-[3-(5-[4-(trifluoromethyl)phenyl]-1H-pyrazol-3-yl)phenyl]thiophen-2-yl)-methanone] are 5.04, 76.4 ± 3 µM, 33.4 and 2.29 ± 0.1 µM.
As to `Cn1c(C(=O)N2CCOCC2)ccc1-c1cccc(-c2cc[nH]n2)c1` [21j, Morpholino(5-[3-(1H-pyrazol-3-yl)phenyl]-1-methyl-1H-pyrrol-2-yl)methanone], the logD hydrocarbon water in data set [1] came out at 2.56. This compound yielded an EC50 with EV71 strain BrCr of 223 ± 2 µM.
As to `CCOC(=O)c1ccc(OCCC2CCN(c3ccc(C)nn3)CC2)cc1` [Pirodavir, reference compound], the CC50 at 4 days in data set [2] was more than 54 µM. Further, the EC50 in the data set with EV71 strain BrCr turned out to be 0.3 ± 0.1 µM.
Compound `O=C(NC1CC1)c1ccc(-c2cccc(-c3cc[nH]n3)c2)o1` [compound 13, N-Cyclopropyl-5-[3-(1H-pyrazol-3-yl)phenyl]furan-2-carboxamide] came in with a logD hydrocarbon water in data set [1] of 3.25. Also, the EC50 with EV71 strain BrCr is 15.1 ± 1 µM.
For `COCCNC(=O)c1ccc(-c2cccc(-c3cc[nH]n3)c2)s1` [compound 14, N-(2-Methoxyethyl)-5-[3-(1H-pyrazol-3-yl)phenyl]thiophene-2-carboxamide], the logD hydrocarbon water in data set [1] turned out to be 3.15. In data set [2], the CC50 at 4 days came to 22.4 ± 2.5 µM.
For the compound `Cn1ccc(-c2cccc(-c3ccc(C(=O)N4CCOCC4)o3)c2)n1` [compound 23, Morpholino(5-[3-(1-methyl-1H-pyrazol-3-yl)phenyl]furan-2-yl)methanone], the logD hydrocarbon water in data set [1] is 2.75. For the same compound, in the data set on EV71 strain BrCr, the EC50 is 34.6 ± 1 µM.
